Test results as given in patent US10041953B2, “Mass spectrometric determination of drug resistance” (priority 2013, dated 2018).
≈ marks a conversion by molar mass, not a printed value.

Columns and labels:
Format in all cases: cell-based
Salmonella strain 17109 = assay: MIC for ciprofloxacin, Salmonella strain 17109; details: Salmonella strain 17109, one gyrase amino acid substitution
Salmonella strain 19222 = assay: MIC for ciprofloxacin, Salmonella strain 19222; details: Salmonella strain 19222, one gyrase amino acid substitution
[1] = test system: salmonella wild type (13471); assay: MIC for ciprofloxacin, wild type (13471); details: wild type gyrase
Salmonella strain 6836 = assay: MIC for ciprofloxacin, Salmonella strain 6836; details: Salmonella strain 6836, double gyrase mutation

O=C(O)c1cn(C2CC2)c2cc(N3CCNCC3)c(F)cc2c1=O [ciprofloxacin]
MIC (Salmonella strain 17109): 1 µg/mL (≈ 3.02 µM) | MIC (Salmonella strain 19222): 1 µg/mL (≈ 3.02 µM) | MIC [1]: 0.03 µg/mL (≈ 0.0905 µM) | MIC (Salmonella strain 6836): 32 µg/mL (≈ 96.6 µM)
